Measurements taken from patent US6346540B1, “1-(1,2-disubstituted pipeidinyl)-4-substituted piperidine derivatives” (Janssen Pharmaceutica N.V., priority 1995, dated 2002).

Columns and labels:
guinea-pigs = test: Antagonism of substance P induced plasma extravasation in guinea-pigs; assay type: in vivo; conditions: lowest active dose, compound given 1 hour prior to substance P, female guinea-pigs; for LAD conjunctiva / LAD forepaws / LAD nose: 10 minutes after challenge; for LAD trachea / LAD urinary bladder: 30 minutes after challenge
Procedure: Antagonism of Substance P Induced Plasma Extravasation in Guinea-pigs
Plasma extravasation was induced by injection of substance P (2 mg/kg) in the femoral artery of female guinea-pigs. Evans Blue dye (30 mg/kg) was injected simultaneously. The test compound or solvent was administered 1 hour prior to substance P injection. 10 minutes after challenge, the animals were checked for blue colouring (a direct measure for plasma extravasation) of the nose, the forepaws, and the conjunctiva. 30 minutes after challenge, the animals were sacrificed by CO2 gas inhalation and checked for blue coloring of the trachea and the urinary bladder. […]

| SMILES | melting point [°C] | LAD conjunctiva (guinea-pigs) [mg/kg] | LAD forepaws (guinea-pigs) [mg/kg] | LAD nose (guinea-pigs) [mg/kg] | LAD trachea (guinea-pigs) [mg/kg] | LAD urinary bladder (guinea-pigs) [mg/kg] |
| --- | --- | --- | --- | --- | --- | --- |
| Cc1cc(C)cc(C(=O)N2CC[C@H](N3CCC(C(=O)O)(c4ccccc4)CC3)C[C@@H]2Cc2ccccc2)c1 (racemic) | 259.1 |  |  |  |  |  |
| COc1ccccc1C1(O)CCN([C@@H]2CCN(C(=O)c3cc(C)cc(C)c3)[C@@H](Cc3ccccc3)C2)CC1 (racemic) [Compound 17, (±)-trans-1-(3,5-dimethylbenzoyl)-4-[4-hydroxy-4-(2-methoxyphenyl)-1-piperidinyl]-2-(phenyl-methyl)piperidine] | 213.1 |  |  |  |  |  |
| Cc1cc(C)cc(C(=O)N2CC[C@H](N3CCC(NC(=O)c4ccccc4N)CC3)C[C@@H]2Cc2ccccc2)c1 (racemic) [Compound 24, (±)-cis-2-amino-N-[1-[1-(3,5-dimethylbenzoyl)-2-(phenylmethyl)-4-piperidinyl]-4-piperidinyl]benzamide] | 121.1 |  |  |  |  |  |
| Cc1cc(C)cc(C(=O)N2CC[C@@H](N3CCC(NCCc4ccccc4)CC3)C[C@@H]2Cc2ccccc2)c1 (racemic) [Compound 27, (±)-trans-1-(3,5-dimethylbenzoyl)-4-[4-[(2-phenylethyl)amino]-1-piperidinyl]-2-(phenylmethyl)piperidine] | 67.8 |  |  |  |  |  |
| Cc1cc(C)cc(C(=O)N2CC[C@@H](N3CCC(OC(=O)c4cc(Cl)cc(Cl)c4)CC3)C[C@@H]2Cc2ccccc2)c1 (racemic) [Compound 33, (±)-trans-1-[1-(3,5-dimethylbenzoyl)-2-(phenylmethyl)-4-piperidinyl]-4-piperidinyl 3,5-dichloro-benzoate] | 83.3 |  |  |  |  |  |
| O=C(c1cc(C(F)(F)F)cc(C(F)(F)F)c1)N1CC[C@@H](N2CCC(n3c(=O)[nH]c4ccccc43)CC2)C[C@@H]1Cc1ccccc1 (racemic) [Compound 43, (±)-trans-1-[3,5-bis(trifluoromethyl)benzoyl]-4-[4-(2,3-dihydro-2-oxo-1H-benzimidazol-1-yl)-1-piperidinyl]-2-(phenylmethyl)piperidine] | 156.1 | 2.5 | 2.5 | 2.5 | 10 | 10 |
| O=C(c1cc(C(F)(F)F)cc(C(F)(F)F)c1)N1CC[C@@H](N2CCC(C(=O)N3CCCC3)(c3ccccc3)CC2)C[C@@H]1Cc1ccc(C(F)(F)F)cc1 (racemic) [Compound 112, (±)-trans-1-[3,5-bis(trifluoromethyl)benzoyl]-4-[4-phenyl-4-(1-pyrrolidinylcarbonyl)-1-piperidinyl]-2-[[4-(trifluoromethyl)phenyl]methyl]-piperidine] |  | 2.5 | 2.5 | 2.5 | 2.5 | 2.5 |
